Data as given in ChEMBL document CHEMBL3046389, “Synthesis and biological evaluation of novel hydroquinone dimethyl ethers as potential anticancer and antimicrobial agents” (2013).
≈ marks a conversion by molar mass, not a printed value.

Legend:
Format in all cases: functional
[1] = system: Candida albicans; assay: Antimicrobial activity against Candida albicans DSM 70014 after 48 hr by two-fold serial broth dilution method; conditions: DSM 70014, 48 h
[2] = system: OVCAR-3; assay: Anticancer activity against Homo sapiens (human) OVCAR3 cells after 48 hr by SRB assay; conditions: OVCAR-3, 48 h
[3] = system: Bacillus subtilis; assay: Antimicrobial activity against Bacillus subtilis ATCC 6633 after 48 hr by two-fold serial broth dilution method; conditions: ATCC 6633, 48 h
[4] = system: IGROV-1; assay: Growth inhibition of Homo sapiens (human) IGROV1 cells at 10 uM after 48 hr by SRB assay; conditions: IGROV-1, 48 h, read-out: GI
[5] = system: EKVX; assay: Anticancer activity against Homo sapiens (human) EKVX cells after 48 hr by SRB assay
[6] = system: HCC 2998; assay: Growth inhibition of Homo sapiens (human) HCC2998 cells at 10 uM after 48 hr by SRB assay; conditions: HCC 2998, 48 h, read-out: GI
[7] = system: TK-10; assay: Growth inhibition of Homo sapiens (human) TK10 cells at 10 uM after 48 hr by SRB assay; conditions: TK-10, 48 h, read-out: GI
[8] = system: SF-539; assay: Growth inhibition of Homo sapiens (human) SF539 cells at 10 uM after 48 hr by SRB assay; conditions: SF-539, 48 h, read-out: GI
[9] = system: SR; assay: Anticancer activity against Homo sapiens (human) SR cells after 48 hr by SRB assay
[10] = system: HOP-92; assay: Anticancer activity against Homo sapiens (human) HOP92 cells after 48 hr by SRB assay; conditions: HOP-92, 48 h
[11] = system: SK-MEL-28; assay: Anticancer activity against Homo sapiens (human) SK-MEL-28 cells after 48 hr by SRB assay; conditions: SK-MEL-28, 48 h
[12] = system: NCI-H522; assay: Anticancer activity against Homo sapiens (human) NCI-H522 cells after 48 hr by SRB assay; conditions: NCI-H522, 48 h
[13] = system: U-251; assay: Anticancer activity against Homo sapiens (human) U251 cells after 48 hr by SRB assay; conditions: U-251, 48 h
[14] = system: CAKI-1; assay: Anticancer activity against Homo sapiens (human) CAKI-1 cells after 48 hr by SRB assay; conditions: CAKI-1, 48 h
[15] = system: SW-620; assay: Anticancer activity against Homo sapiens (human) SW620 cells after 48 hr by SRB assay; conditions: SW-620, 48 h
[16] = system: Malme-3M; assay: Anticancer activity against Homo sapiens (human) MALME-3M cells after 48 hr by SRB assay
[17] = system: CCRF-CEM; assay: Growth inhibition of Homo sapiens (human) CCRF-CEM cells at 10 uM after 48 hr by SRB assay; conditions: read-out: GI
[18] = system: Malme-3M; assay: Growth inhibition of Homo sapiens (human) MALME-3M cells at 10 uM after 48 hr by SRB assay; conditions: read-out: GI
[19] = system: SN12C; assay: Anticancer activity against Homo sapiens (human) SN12C cells after 48 hr by SRB assay
[20] = system: TK-10; assay: Anticancer activity against Homo sapiens (human) TK10 cells after 48 hr by SRB assay; conditions: TK-10, 48 h
[21] = system: OVCAR-4; assay: Anticancer activity against Homo sapiens (human) OVCAR4 cells after 48 hr by SRB assay; conditions: OVCAR-4, 48 h
[22] = system: ACHN; assay: Anticancer activity against Homo sapiens (human) ACHN cells after 48 hr by SRB assay
[23] = system: NCI-H322M; assay: Anticancer activity against Homo sapiens (human) NCI-H322M cells after 48 hr by SRB assay
[24] = system: COLO 205; assay: Anticancer activity against Homo sapiens (human) COLO205 cells after 48 hr by SRB assay; conditions: COLO 205, 48 h
[25] = system: Hs-578T; assay: Growth inhibition of Homo sapiens (human) Hs 578T cells at 10 uM after 48 hr by SRB assay; conditions: read-out: GI
[26] = system: U-251; assay: Growth inhibition of Homo sapiens (human) U251 cells at 10 uM after 48 hr by SRB assay; conditions: U-251, 48 h, read-out: GI
[27] = system: UO-31; assay: Growth inhibition of Homo sapiens (human) UO31 cells at 10 uM after 48 hr by SRB assay; conditions: UO-31, 48 h, read-out: GI
[28] = system: NCI-H23; assay: Anticancer activity against Homo sapiens (human) NCI-H23 cells after 48 hr by SRB assay; conditions: NCI-H23, 48 h
[29] = system: Staphylococcus aureus; assay: Antimicrobial activity against Staphylococcus aureus DSM 1104 after 48 hr by two-fold serial broth dilution method; conditions: DSM 1104, 48 h
[30] = system: RXF 393; assay: Anticancer activity against Homo sapiens (human) RXF393 cells after 48 hr by SRB assay; conditions: RXF 393, 48 h
[31] = system: LOX IMVI; assay: Anticancer activity against Homo sapiens (human) LOXIMVI cells after 48 hr by SRB assay
[32] = system: HT-29; assay: Growth inhibition of Homo sapiens (human) HT-29 cells at 10 uM after 48 hr by SRB assay; conditions: HT-29, 48 h, read-out: GI
[33] = system: SF-295; assay: Anticancer activity against Homo sapiens (human) SF295 cells after 48 hr by SRB assay; conditions: SF-295, 48 h
[34] = system: SF-295; assay: Growth inhibition of Homo sapiens (human) SF295 cells at 10 uM after 48 hr by SRB assay; conditions: SF-295, 48 h, read-out: GI
[35] = read-out: LC50 (the source's name)

## COc1ccc(OC)c(/C=C/C(=O)N/N=C/c2ccc(Cl)cc2)c1
[1]
  MFC: 50 µg/mL (≈ 145 µM)
  MIC: 25 µg/mL (≈ 72.5 µM)
[2]
  GI50: 33.5 nM
  LC50: > 100000 nM
  TGI: 115 nM
[3]
  MBC: 50 µg/mL (≈ 145 µM)
  MIC: 50 µg/mL (≈ 145 µM)
[4]
  inhibition of growth at 10 µM: 82.1%
[5]
  GI50: 816 nM
  TGI: > 100000 nM
[5]; [35]
  CC50: > 100000 nM
[6]
  inhibition of growth at 10 µM: 97.7%
[7]
  inhibition of growth at 10 µM: 49%
[8]
  inhibition of growth at 10 µM: 143%
[9]
  GI50: 39 nM
  TGI: 16400 nM
[9]; [35]
  CC50: > 100000 nM
[10]
  GI50: 4430 nM
  TGI: 58900 nM
[10]; [35]
  CC50: > 100000 nM
[11]
  GI50: 372 nM
  LC50 (concentration killing 50% of cells): > 100000 nM
  TGI: > 100000 nM
[12]
  GI50: 29.2 nM
  TGI: 382 nM
[12]; [35]
  CC50: > 100000 nM
[13]
  GI50: 184 nM
  TGI: 1490 nM
[13]; [35]
  CC50: > 100000 nM
[14]
  GI50: 87.9 nM
  TGI: > 100000 nM
[14]; [35]
  CC50: > 100000 nM
[15]
  GI50: 81.3 nM
  TGI: > 100000 nM
[15]; [35]
  CC50: > 100000 nM
[16]
  TGI: > 100000 nM
[16]; [35]
  CC50: > 100000 nM
[17]
  inhibition of growth at 10 µM: 86.3%
[18]
  inhibition of growth at 10 µM: 45.9%
[19]
  GI50: 982 nM
  LC50: > 100000 nM
  TGI: > 100000 nM
[20]
  GI50: 691 nM
  TGI: > 100000 nM
[20]; [35]
  CC50: > 100000 nM
[21]
  GI50: 439 nM
  TGI: > 100000 nM
[21]; [35]
  CC50: > 100000 nM
[22]
  GI50: 1490 nM
  TGI: > 100000 nM
[22]; [35]
  CC50: > 100000 nM
[23]
  GI50: 666 nM
  TGI: > 100000 nM
[23]; [35]
  CC50: > 100000 nM
[24]
  GI50: 153 nM
  TGI: 595 nM
[24]; [35]
  CC50: 63900 nM
[25]
  inhibition of growth at 10 µM: 102%
[26]
  inhibition of growth at 10 µM: 81.6%
[27]
  inhibition of growth at 10 µM: 69.9%
[28]
  GI50: 148 nM
  TGI: 2460 nM
[28]; [35]
  CC50: > 100000 nM
[29]
  MBC: 100 µg/mL (≈ 290 µM)
  MIC: 100 µg/mL (≈ 290 µM)
[30]
  GI50: 46.9 nM
  LC50: > 100000 nM
  TGI: 298 nM
[31]
  GI50: 254 nM
  TGI: > 100000 nM
[31]; [35]
  CC50: > 100000 nM
[32]
  inhibition of growth at 10 µM: 93.5%
[33]
  GI50: 129 nM
  TGI: 6440 nM
[33]; [35]
  CC50: > 100000 nM
[34]
  inhibition of growth at 10 µM: 68.2%
